Experimental data published in the NIST ThermoML archive (doi:10.1016/j.jct.2019.02.025).

How the values were obtained:
[1] = for mass density / kinematic viscosity: 101.33 kPa, Liquid; for mass density: Vibrating tube method; for surface tension liquid-gas / kinematic viscosity: Surface laser light scattering (SLLS)
[2] = refractive index (Na D-line) (dimensionless); conditions: 101.33 kPa, Liquid, Standard Abbe refractometry

CCCCCC(=O)OCC [ethyl hexanoate]
Conditions | kinematic viscosity [m2/s] | mass density [kg/m3] | refractive index | surface tension liquid-gas [mN/m]
[1], 293.15 K | – | 871.07 | – | –
[1], 298.26 K | 1.13e-06 | – | – | 24.65
[1], 303.15 K | – | 861.61 | – | –
[1], 313.15 K | – | 851.2 | – | –
[1], 323.06 K | 8.14e-07 | – | – | 22.27
[1], 323.15 K | – | 842.71 | – | –
[1], 333.15 K | – | 833.25 | – | –
[1], 343.15 K | – | 823.72 | – | –
[1], 348.04 K | 6.25e-07 | – | – | 20.08
[1], 353.15 K | – | 814.13 | – | –
[1], 363.15 K | – | 804.45 | – | –
[1], 372.96 K | 5e-07 | – | – | 17.81
[1], 373.15 K | – | 794.69 | – | –
[1], 383.15 K | – | 784.83 | – | –
[1], 393.15 K | – | 774.87 | – | –
[1], 397.73 K | 4.11e-07 | – | – | 15.68
[1], 403.15 K | – | 764.77 | – | –
[1], 413.15 K | – | 754.53 | – | –
[1], 422.94 K | 3.46e-07 | – | – | 13.51
[1], 423.15 K | – | 744.07 | – | –
[1], 447.88 K | 3.03e-07 | – | – | 11.43
[2], 278.15 K | – | – | 1.41438 | –
[2], 283.15 K | – | – | 1.4121 | –
[2], 288.15 K | – | – | 1.40982 | –
[2], 293.15 K | – | – | 1.40753 | –
[2], 298.15 K | – | – | 1.40525 | –
[2], 303.15 K | – | – | 1.40295 | –
[2], 308.15 K | – | – | 1.40063 | –
[2], 313.15 K | – | – | 1.39829 | –
[2], 318.15 K | – | – | 1.39594 | –
[2], 323.15 K | – | – | 1.3936 | –
[2], 328.15 K | – | – | 1.39128 | –
[2], 333.15 K | – | – | 1.38897 | –
[2], 338.15 K | – | – | 1.38667 | –
[2], 343.15 K | – | – | 1.38438 | –
[2], 348.15 K | – | – | 1.3821 | –
[2], 353.15 K | – | – | 1.37983 | –
[2], 358.15 K | – | – | 1.37754 | –

CCCCCCCC(=O)OCC [ethyl octanoate]
Conditions | kinematic viscosity [m2/s] | mass density [kg/m3] | refractive index | surface tension liquid-gas [mN/m]
[1], 293.15 K | – | 866.99 | – | –
[1], 298.15 K | 1.52e-06 | – | – | 25.38
[1], 303.15 K | – | 858.27 | – | –
[1], 313.15 K | – | 849.55 | – | –
[1], 323.14 K | 1.15e-06 | – | – | 23.34
[1], 323.15 K | – | 839.92 | – | –
[1], 333.15 K | – | 832 | – | –
[1], 343.15 K | – | 823.46 | – | –
[1], 348.17 K | 8.92e-07 | – | – | 21.5
[1], 353.15 K | – | 814.74 | – | –
[1], 363.15 K | – | 805.97 | – | –
[1], 373.15 K | – | 797.16 | – | –
[1], 373.19 K | 6.88e-07 | – | – | 19.5
[1], 383.15 K | – | 788.08 | – | –
[1], 393.15 K | – | 779.34 | – | –
[1], 398.2 K | 5.45e-07 | – | – | 17.44
[1], 403.15 K | – | 770.31 | – | –
[1], 413.15 K | – | 761.18 | – | –
[1], 423.15 K | – | 751.94 | – | –
[1], 423.18 K | 4.53e-07 | – | – | 15.36
[1], 433.15 K | – | 742.64 | – | –
[1], 443.15 K | – | 733.17 | – | –
[1], 448.17 K | 3.86e-07 | – | – | 13.16
[1], 453.15 K | – | 723.58 | – | –
[2], 278.15 K | – | – | 1.42461 | –
[2], 283.15 K | – | – | 1.42242 | –
[2], 288.15 K | – | – | 1.42025 | –
[2], 293.15 K | – | – | 1.41807 | –
[2], 298.15 K | – | – | 1.41587 | –
[2], 303.15 K | – | – | 1.41367 | –
[2], 308.15 K | – | – | 1.41148 | –
[2], 313.15 K | – | – | 1.40926 | –
[2], 318.15 K | – | – | 1.40703 | –
[2], 323.15 K | – | – | 1.40481 | –
[2], 328.15 K | – | – | 1.40261 | –
[2], 333.15 K | – | – | 1.40042 | –
[2], 338.15 K | – | – | 1.39823 | –
[2], 343.15 K | – | – | 1.39603 | –
[2], 348.15 K | – | – | 1.39386 | –
[2], 353.15 K | – | – | 1.3917 | –
[2], 358.15 K | – | – | 1.38955 | –

CCCCCCCCCCCCCC(=O)OCC [ethyl tetradecanoate]
Conditions | kinematic viscosity [m2/s] | mass density [kg/m3] | refractive index | surface tension liquid-gas [mN/m]
[1], 293.15 K | – | 860.8 | – | –
[1], 303.15 K | – | 853.07 | – | –
[1], 313.15 K | – | 845.46 | – | –
[1], 323.14 K | 2.63e-06 | – | – | 24.08
[1], 323.15 K | – | 837.86 | – | –
[1], 333.15 K | – | 830.3 | – | –
[1], 343.15 K | – | 822.77 | – | –
[1], 348.16 K | 1.9e-06 | – | – | 22.25
[1], 353.15 K | – | 815.26 | – | –
[1], 363.15 K | – | 807.75 | – | –
[1], 373.15 K | – | 799.27 | – | –
[1], 373.22 K | 1.43e-06 | – | – | 20.56
[1], 383.15 K | – | 792.77 | – | –
[1], 393.15 K | – | 785.27 | – | –
[1], 398.24 K | 1.12e-06 | – | – | 19.48
[1], 403.15 K | – | 777.75 | – | –
[1], 413.15 K | – | 770.21 | – | –
[1], 423.15 K | – | 762.65 | – | –
[1], 423.26 K | 8.97e-07 | – | – | 18.15
[1], 433.15 K | – | 755.04 | – | –
[1], 443.15 K | – | 747.42 | – | –
[1], 448.28 K | 7.25e-07 | – | – | 16.53
[1], 453.15 K | – | 739.78 | – | –
[2], 288.15 K | – | – | 1.43841 | –
[2], 293.15 K | – | – | 1.43636 | –
[2], 298.15 K | – | – | 1.43432 | –
[2], 303.15 K | – | – | 1.4323 | –
[2], 308.15 K | – | – | 1.43026 | –
[2], 313.15 K | – | – | 1.4282 | –
[2], 318.15 K | – | – | 1.42613 | –
[2], 323.15 K | – | – | 1.42407 | –
[2], 328.15 K | – | – | 1.42205 | –
[2], 333.15 K | – | – | 1.42004 | –
[2], 338.15 K | – | – | 1.41803 | –
[2], 343.15 K | – | – | 1.41603 | –
[2], 348.15 K | – | – | 1.41406 | –
[2], 353.15 K | – | – | 1.41208 | –
[2], 358.15 K | – | – | 1.4101 | –
